{"source": "patent US6974804B2", "about": "“Esters” (Unilever Home & Personal Care USA, division of Conopco, Inc., priority 2000, dated 2005)", "format_in_all_cases": "physicochemical", "key": {"[1]": {"assay": "Light transmission at 580 nm (% T)", "conditions": "9% REF2 and 1% of the specified ester in 60:40 hydrogenated polydecene:DC245; 580 nm"}, "[2]": {"assay": "Stability testing of gels: crystal growth visible by eye on storage at 37° C.", "conditions": "for Observations: 9% of REF1 and 1% of additional structurant", "experimental": "Gels were made up using 10% structurant in a 60:40 mixture of Hydrogenated Polyisobutene (Panalene L14E):DC245. The gels, in sealed glass bottles, were left to stand for 18 hrs at room temperature, after which they were transferred to an oven thermostatically controlled to 37° C. Samples were checked periodically for signs of crystal growth visible by eye. REF1 is cellobiose octanonanoate.\nGels were made up and tested in accordance with the procedure in Example 6, as such or modified by employing a weight ratio of 9% of REF1 and 1% of an additional structurant as specified in Table 13 below.\nThe test procedure of Example 9 was repeated, but using ACB structurant REF2 alone as the structurant or to which a CHME structurant was added."}, "[3]": {"assay": "Visual assessment score (clarity of gel in 1 cm cuvette)", "conditions": "for Clarity Visual (assessment score): 9% REF2 and 1% of the specified ester in 60:40 hydrogenated polydecene:DC245, scale −12 to 8; for Clarity Visual (appearance): 60:40 hydrogenated polydecene:DC245 gelled with 9% REF2 and 1% of the specified cellobiose ester", "how_it_was_run": "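A gel in a 1 cm cuvette was laid on white paper printed with 21 graded sets of black figures, numbered −12 (largest, thickest) to 8 (smallest, thinnest). The score was the highest-numbered set read clearly through the gel, with higher meaning clearer.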"}, "[4]": {"assay": "DSC of gels: fibre dissolution temperature (FDT) and solubility of structurant", "conditions": "for Solubility of structurant at 25° C.: from DSC of gel, relative to benchmark REF 2; for FDT: gel heated at 5 K/min in DSC, peak temperature of the highest peak", "experimental": "In this Example the Fibre dissolution temperature (FDT) is measured in the DSC process described later herein, by observing when the fibres dissolve whilst the temperature of sample rises. FDT is taken to be the peak temperature of the highest peak.\nIn REF2 and REF3, the acyl substituents at the other seven cellobiose sites are nonanoyl.\nSamples of gel (about 20 mg) were sealed in stainless steel capsules for DSC. An empty stainless steel capsule was used as the physical reference. The samples were subjected to the following temperature programme:\nThe sample was heated to 100° C. and held at 100° C. for 1 minute, in order to obtain an isotropic solution. The sample was then cooled at 5 K/min to −20° C. The sample was held at −20° C. for 1 minute. The sample is now a gel on the bottom of the sample capsule prepared in a reproducible manner. The gel was then heated at 5 K/min to 100° C. Data was also obtained with empty stainless steel pans as both physical sample and reference. This blank data was later subtracted from the sample data to remove any curvature in the base line."}, "[5]": {"assay": "Gelling of water-immiscible cosmetic liquids in 96 well glass micro-titre plate", "parameters": "key: gel; g4: gel after overnight (18 hrs) storage at 4° C.; g22: gel after overnight (18 hrs) storage at 22° C.; sg: soft gel; sg22: soft gel after overnight (18 hrs) storage at 22° C.; solution; *: the test at 4° C. was not carried out", "conditions": "for gelling of ISA: 150° C. 2.5 hours, cooled to ambient", "how_it_was_run": "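Gel formation was scored by eye and by poking with a micro-spatula at three points: on cooling to room temperature, after 18 h at 18 °C, and after another 18 h at 4 °C. Before this, mixtures of cosmetic liquid with roughly 5% or 10% cellobiose ester were heated at 150 °C for 2.5 h.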"}, "[6]": {"conditions": "10% structurant in 60:40 Panalene L14E:DC245, after 17 days at 37° C."}, "[7]": {"conditions": "5% cellobiose ester in Fluid AP"}, "[8]": {"conditions": "5% cellobiose ester in Mineral oil"}, "[9]": {"conditions": "5% cellobiose ester in Polydecene"}, "[10]": {"conditions": "10% cellobiose ester in Fluid AP"}, "[11]": {"conditions": "10% cellobiose ester in Mineral oil"}, "[12]": {"conditions": "10% cellobiose ester in Polydecene"}, "[13]": {"conditions": "REF2 to which the CHME structurant was added, after 12 days at 37° C."}, "[14]": {"conditions": "5% cellobiose ester in Finsolv TN"}, "[15]": {"conditions": "10% cellobiose ester in Finsolv TN"}}}
{"molecule": "CCCCCCCCC(=O)OCC1OC(OC2C(COC(=O)CCCCCCCC)OC(OC(C)=O)C(OC(=O)CCCCCCCC)C2OC(=O)CCCCCCCC)C(OC(=O)CCCCCCCC)C(OC(=O)CCCCCCCC)C1OC(=O)CCCCCCCC", "note": "(mixture of isomers) [Ex 1.7]", "values": [{"measurement": "Clarity % T", "setting": "[1]", "value": 52, "unit": "%"}, {"measurement": "Observations", "setting": "[2]; after 13 days at 37° C.", "value": "Slight crystal growth on surface after 13"}, {"measurement": "Observation", "setting": "[2]; [6]", "value": "No crystals after 17 days."}, {"measurement": "Observation", "setting": "[2]; REF2 to which the CHME structurant was added, after 13 days at 37° C.", "value": "Slight very fine crystal growth after 13"}, {"measurement": "Clarity Visual (assessment score)", "setting": "[3]", "value": "> 8"}, {"measurement": "Clarity Visual (appearance)", "setting": "[3]", "value": "transparent"}, {"measurement": "Solubility of structurant at 25° C.", "setting": "[4]", "value": "Less soluble. No"}, {"measurement": "FDT", "setting": "[4]", "value": 72, "unit": "°C"}, {"measurement": "gelling of DC556", "setting": "[5]; 5% cellobiose ester in DC556", "value": "gel"}, {"measurement": "gelling of Fluid AP", "setting": "[5]; [7]", "value": "gel"}, {"measurement": "gelling of ISA", "setting": "[5]; 5% cellobiose ester in ISA", "value": "sg"}, {"measurement": "gelling of Mineral oil", "setting": "[5]; [8]", "value": "sg"}, {"measurement": "gelling of Polydecene", "setting": "[5]; [9]", "value": "gel"}, {"measurement": "gelling of DC556", "setting": "[5]; 10% cellobiose ester in DC556", "value": "gel"}, {"measurement": "gelling of Fluid AP", "setting": "[5]; [10]", "value": "gel"}, {"measurement": "gelling of ISA", "setting": "[5]; 10% cellobiose ester in ISA", "value": "gel"}, {"measurement": "gelling of Mineral oil", "setting": "[5]; [11]", "value": "gel"}, {"measurement": "gelling of Polydecene", "setting": "[5]; [12]", "value": "gel"}]}
{"molecule": "CCCCCCCCC(=O)OCC1OC(OC2C(COC(=O)CCCCCCCC)OC(OC(=O)c3ccc4ccccc4c3)C(OC(=O)CCCCCCCC)C2OC(=O)CCCCCCCC)C(OC(=O)CCCCCCCC)C(OC(=O)CCCCCCCC)C1OC(=O)CCCCCCCC", "note": "(mixture of isomers) [Ex 1.3]", "values": [{"measurement": "Clarity % T", "setting": "[1]", "value": 58, "unit": "%"}, {"measurement": "Observations", "setting": "[2]; after 12 days at 37° C.", "value": "No crystals after 12 days at 37 °C"}, {"measurement": "Observation", "setting": "[2]; [13]", "value": "No crystals after 12 days at 37 °C"}, {"measurement": "Clarity Visual (assessment score)", "setting": "[3]", "value": 4}, {"measurement": "Clarity Visual (appearance)", "setting": "[3]", "value": "transparent"}, {"measurement": "Solubility of structurant at 25° C.", "setting": "[4]", "value": "Less soluble. No"}, {"measurement": "FDT", "setting": "[4]", "value": 63, "unit": "°C"}, {"measurement": "gelling of DC556", "setting": "[5]; 5% cellobiose ester in DC556", "value": "gel"}, {"measurement": "gelling of Finsolv TN", "setting": "[5]; [14]", "value": "sol"}, {"measurement": "gelling of Fluid AP", "setting": "[5]; [7]", "value": "gel"}, {"measurement": "gelling of IPM", "setting": "[5]; 5% cellobiose ester in IPM", "value": "g4"}, {"measurement": "gelling of ISA", "setting": "[5]; 5% cellobiose ester in ISA", "value": "gel"}, {"measurement": "gelling of Mineral oil", "setting": "[5]; [8]", "value": "g22"}, {"measurement": "gelling of Polydecene", "setting": "[5]; [9]", "value": "gel"}, {"measurement": "gelling of DC556", "setting": "[5]; 10% cellobiose ester in DC556", "value": "gel"}, {"measurement": "gelling of Finsolv TN", "setting": "[5]; [15]", "value": "g4"}, {"measurement": "gelling of Fluid AP", "setting": "[5]; [10]", "value": "gel"}, {"measurement": "gelling of IPM", "setting": "[5]; 10% cellobiose ester in IPM", "value": "g22"}, {"measurement": "gelling of ISA", "setting": "[5]; 10% cellobiose ester in ISA", "value": "gel"}, {"measurement": "gelling of Mineral oil", "setting": "[5]; [11]", "value": "g22"}, {"measurement": "gelling of Polydecene", "setting": "[5]; [12]", "value": "gel"}]}
{"molecule": "CCCCCCCCC(=O)OCC1OC(OC2C(COC(=O)CCCCCCCC)OC(OC(=O)c3ccccc3)C(OC(=O)CCCCCCCC)C2OC(=O)CCCCCCCC)C(OC(=O)CCCCCCCC)C(OC(=O)CCCCCCCC)C1OC(=O)CCCCCCCC", "note": "(mixture of isomers) [Ex 1.2]", "values": [{"measurement": "Clarity % T", "setting": "[1]", "value": 38, "unit": "%"}, {"measurement": "Observation", "setting": "[2]; [6]", "value": "No crystals after 17 days."}, {"measurement": "Clarity Visual (assessment score)", "setting": "[3]", "value": "translucent 4"}, {"measurement": "Clarity Visual (appearance)", "setting": "[3]", "value": "transparent/"}, {"measurement": "Solubility of structurant at 25° C.", "setting": "[4]", "value": "Less soluble. No"}, {"measurement": "FDT", "setting": "[4]", "value": 67, "unit": "°C"}, {"measurement": "gelling of DC556", "setting": "[5]; 5% cellobiose ester in DC556", "value": "gel"}, {"measurement": "gelling of Finsolv TN", "setting": "[5]; [14]", "value": "sol"}, {"measurement": "gelling of Fluid AP", "setting": "[5]; [7]", "value": "sg"}, {"measurement": "gelling of IPM", "setting": "[5]; 5% cellobiose ester in IPM", "value": "sol"}, {"measurement": "gelling of ISA", "setting": "[5]; 5% cellobiose ester in ISA", "value": "sg"}, {"measurement": "gelling of Mineral oil", "setting": "[5]; [8]", "value": "sg"}, {"measurement": "gelling of Polydecene", "setting": "[5]; [9]", "value": "gel"}, {"measurement": "gelling of DC556", "setting": "[5]; 10% cellobiose ester in DC556", "value": "gel"}, {"measurement": "gelling of Finsolv TN", "setting": "[5]; [15]", "value": "sol"}, {"measurement": "gelling of Fluid AP", "setting": "[5]; [10]", "value": "gel"}, {"measurement": "gelling of IPM", "setting": "[5]; 10% cellobiose ester in IPM", "value": "sol"}, {"measurement": "gelling of ISA", "setting": "[5]; 10% cellobiose ester in ISA", "value": "gel"}, {"measurement": "gelling of Mineral oil", "setting": "[5]; [11]", "value": "gel"}, {"measurement": "gelling of Polydecene", "setting": "[5]; [12]", "value": "gel"}]}
{"molecule": "CCCCCCCCC(=O)OCC1OC(OC2C(COC(=O)CCCCCCCC)OC(OC(=O)c3ccccc3)C(OC(=O)CCCCCCCC)C2OC(=O)CCCCCCCC)C(OC(=O)CCCCCCCC)C(OC(=O)CCCCCCCC)C1OC(=O)CCCCCCCC", "note": "(mixture of isomers) [Ex 1.1]", "values": [{"measurement": "Clarity % T", "setting": "[1]", "value": 55, "unit": "%"}, {"measurement": "Observations", "setting": "[2]; after 11 days at 37° C.", "value": "Slight crystal growth on surface after 11"}, {"measurement": "Observation", "setting": "[2]; [13]", "value": "No crystals after 12 days at 37 °C"}, {"measurement": "Clarity Visual (assessment score)", "setting": "[3]", "value": "translucent 5"}, {"measurement": "Clarity Visual (appearance)", "setting": "[3]", "value": "transparent/"}, {"measurement": "Solubility of structurant at 25° C.", "setting": "[4]", "value": "Less soluble. No"}, {"measurement": "FDT", "setting": "[4]", "value": 64, "unit": "°C"}, {"measurement": "gelling of DC556", "setting": "[5]; 5% cellobiose ester in DC556", "value": "gel"}, {"measurement": "gelling of Finsolv TN", "setting": "[5]; [14]", "value": "g4"}, {"measurement": "gelling of Fluid AP", "setting": "[5]; [7]", "value": "gel"}, {"measurement": "gelling of IPM", "setting": "[5]; 5% cellobiose ester in IPM", "value": "g4"}, {"measurement": "gelling of ISA", "setting": "[5]; 5% cellobiose ester in ISA", "value": "g22"}, {"measurement": "gelling of Mineral oil", "setting": "[5]; [8]", "value": "gel"}, {"measurement": "gelling of Polydecene", "setting": "[5]; [9]", "value": "gel"}, {"measurement": "gelling of DC556", "setting": "[5]; 10% cellobiose ester in DC556", "value": "gel"}, {"measurement": "gelling of Finsolv TN", "setting": "[5]; [15]", "value": "gel"}, {"measurement": "gelling of Fluid AP", "setting": "[5]; [10]", "value": "gel"}, {"measurement": "gelling of IPM", "setting": "[5]; 10% cellobiose ester in IPM", "value": "gel"}, {"measurement": "gelling of ISA", "setting": "[5]; 10% cellobiose ester in ISA", "value": "gel"}, {"measurement": "gelling of Mineral oil", "setting": "[5]; [11]", "value": "gel"}, {"measurement": "gelling of Polydecene", "setting": "[5]; [12]", "value": "gel"}]}
